From the NIST ThermoML archive (doi:10.1016/j.jct.2014.04.016)
Where “and” joins values, the source holds several entries; their conditions need not be identical. Equal entries are not always repeated. Numbers after ± are expanded uncertainties.

Test: xn = mol fraction of the nth substance listed
Settings: 100 kPa; for electrical conductivity: Alternating current cell with electrodes; for mass density: Vibrating tube method; for viscosity: Concentric cylinders viscometry

CCCCCCCCOS(=O)(=O)[O-].CCn1cc[n+](C)c1 [1-ethyl-3-methylimidazolium octyl sulfate] + O
Settings | electrical conductivity | mass density [kg/m3] | viscosity
251.8 K, Glass, x1 = 0.5001 | 0.013 ± 0.003 S/m | – | –
251.9 K, Glass, x1 = 0.5001 | 0.014 ± 0.003 S/m | – | –
254.1 K, Glass, x1 = 0.5001 | 0.016 S/m and 0.017 S/m | – | –
255.1 K, Glass, x1 = 0.5001 | 0.018 ± 0.003 S/m | – | –
256.1 K, Glass, x1 = 0.5001 | 0.02 ± 0.003 S/m | – | –
257.1 K, Glass, x1 = 0.4688 | 0.023 ± 0.003 S/m | – | –
257.1 K, Glass, x1 = 0.5001 | 0.022 ± 0.003 S/m | – | –
258.1 K, Glass, x1 = 0.5001 | 0.023 ± 0.003 S/m | – | –
259.1 K, Glass, x1 = 0.4688 | 0.028 ± 0.003 S/m | – | –
259.1 K, Liquid, x1 = 0.5001 | 0.025 ± 0.003 S/m | – | –
261.1 K, Glass, x1 = 0.4688 | 0.032 S/m and 0.031 S/m | – | –
261.1 K, Liquid, x1 = 0.0803 | 0.56 ± 0.012 S/m | – | –
261.1 K, Liquid, x1 = 0.5001 | 0.029 ± 0.003 S/m | – | –
263.1 K, Glass, x1 = 0.2119 | 0.228 ± 0.005 S/m | – | –
263.1 K, Glass, x1 = 0.4688 | 0.036 S/m and 0.038 S/m | – | –
263.1 K, Liquid, x1 = 0.0586 | 0.703 ± 0.016 S/m | – | –
263.1 K, Liquid, x1 = 0.0803 | 0.611 ± 0.013 S/m | – | –
263.1 K, Liquid, x1 = 0.5001 | 0.034 ± 0.003 S/m | – | –
264.1 K, Glass, x1 = 0.1197 | 0.479 ± 0.011 S/m | – | –
265.1 K, Liquid, x1 = 0.0803 | 0.667 S/m and 0.622 S/m | – | –
266.1 K, Glass, x1 = 0.4688 | 0.045 ± 0.003 S/m | – | –
266.1 K, Liquid, x1 = 0.0803 | 0.688 ± 0.015 S/m | – | –
267.1 K, Glass, x1 = 0.4688 | 0.049 ± 0.003 S/m | – | –
268.1 K, Glass, x1 = 0.1197 | 0.566 ± 0.012 S/m | – | –
268.1 K, Glass, x1 = 0.2119 | 0.29 ± 0.007 S/m | – | –
268.1 K, Glass, x1 = 0.4108 | 0.085 ± 0.003 S/m | – | –
268.1 K, Glass, x1 = 0.4688 | 0.051 ± 0.003 S/m | – | –
268.1 K, Liquid, x1 = 0.0401 | 0.898 ± 0.019 S/m | – | –
268.1 K, Liquid, x1 = 0.0586 | 0.867 ± 0.02 S/m | – | –
268.1 K, Liquid, x1 = 0.0803 | 0.755 S/m and 0.753 S/m | – | –
268.1 K, Liquid, x1 = 0.4688 | 0.052 ± 0.003 S/m | – | –
268.1 K, Liquid, x1 = 0.5001 | 0.048 ± 0.003 S/m | – | –
269.1 K, Glass, x1 = 0.1197 | 0.591 S/m and 0.59 S/m | – | –
269.1 K, Liquid, x1 = 0.0586 | 0.897 ± 0.019 S/m | – | –
269.1 K, Liquid, x1 = 0.1197 | – | 1084.1 ± 1 | –
269.1 K, Liquid, x1 = 0.4688 | 0.054 ± 0.003 S/m | – | –
269.6 K, Glass, x1 = 0.4108 | – | – | 16300 ± 7600 mPa·s
269.6 K, Liquid, x1 = 0.4108 | – | 1107.2 ± 1 | –
270.1 K, Glass, x1 = 0.1197 | 0.617 S/m and 0.616 S/m | – | 19170 mPa·s
270.1 K, Glass, x1 = 0.4108 | – | – | 5510 ± 1500 mPa·s
270.1 K, Liquid, x1 = 0.0401 | 0.968 ± 0.02 S/m | – | –
270.1 K, Liquid, x1 = 0.1197 | – | 1083.7 ± 1 | –
270.1 K, Liquid, x1 = 0.4108 | – | 1107 ± 1 | –
270.1 K, Liquid, x1 = 0.4688 | 0.059 S/m and 0.058 S/m | – | –
270.6 K, Glass, x1 = 0.4108 | – | – | 2431 ± 460 mPa·s
270.6 K, Liquid, x1 = 0.4108 | – | 1106.7 ± 1 | –
271.1 K, Glass, x1 = 0.1197 | 0.641 S/m and 0.639 S/m | – | 16390 ± 7600 mPa·s
271.1 K, Glass, x1 = 0.4108 | 0.1 ± 0.003 S/m | – | 1385 ± 210 mPa·s
271.1 K, Liquid, x1 = 0.0803 | 0.862 ± 0.019 S/m | – | –
271.1 K, Liquid, x1 = 0.1197 | – | 1083.1 ± 1 | –
271.1 K, Liquid, x1 = 0.4108 | – | 1106.4 ± 1 | –
271.6 K, Glass, x1 = 0.4108 | – | – | 889.3 ± 110 mPa·s
271.6 K, Liquid, x1 = 0.4108 | – | 1106.1 ± 1 | –
272.1 K, Glass, x1 = 0.1197 | 0.667 ± 0.014 S/m | – | 11470 ± 4400 mPa·s
272.1 K, Glass, x1 = 0.4108 | 0.104 ± 0.003 S/m | – | –
272.1 K, Liquid, x1 = 0.0401 | 1.03 ± 0.022 S/m | – | –
272.1 K, Liquid, x1 = 0.1197 | 0.666 ± 0.015 S/m | 1082.6 ± 1 | –
272.1 K, Liquid, x1 = 0.4108 | – | 1105.7 ± 1 | 609.1 ± 67 mPa·s
273.1 K, Glass, x1 = 0.1197 | – | – | 9033 ± 3100 mPa·s
273.1 K, Glass, x1 = 0.1402 | 0.597 ± 0.013 S/m | – | –
273.1 K, Glass, x1 = 0.2119 | 0.371 S/m and 0.368 S/m | – | –
273.1 K, Glass, x1 = 0.3076 | 0.203 ± 0.005 S/m | – | –
273.1 K, Glass, x1 = 0.3555 | 0.147 ± 0.003 S/m | – | –
273.1 K, Glass, x1 = 0.4108 | 0.111 ± 0.004 S/m | – | –
273.1 K, Liquid, x1 = 0.0401 | 1.07 S/m | – | –
273.1 K, Liquid, x1 = 0.0586 | 1.04 S/m | – | –
273.1 K, Liquid, x1 = 0.0803 | 0.921 ± 0.02 S/m | – | –
273.1 K, Liquid, x1 = 0.1197 | 0.695 ± 0.015 S/m | 1082 ± 1 | –
273.1 K, Liquid, x1 = 0.4108 | – | 1105 ± 1 | 564.7 ± 60 mPa·s
273.1 K, Liquid, x1 = 0.4688 | 0.073 S/m and 0.07 S/m | – | –
273.1 K, Liquid, x1 = 0.5001 | 0.066 ± 0.003 S/m | – | –
274.1 K, Glass, x1 = 0.1197 | – | – | 6783 ± 2000 mPa·s
274.1 K, Liquid, x1 = 0.1197 | 0.723 ± 0.016 S/m | 1081.5 ± 1.1 | –
274.1 K, Liquid, x1 = 0.4108 | 0.117 ± 0.003 S/m | 1104.3 ± 1 | 524.2 ± 54 mPa·s
275.1 K, Glass, x1 = 0.1197 | – | – | 4354 ± 1000 mPa·s
275.1 K, Liquid, x1 = 0.1197 | 0.75 ± 0.016 S/m | 1080.9 ± 1 | –
275.1 K, Liquid, x1 = 0.4108 | 0.123 ± 0.004 S/m | 1103.6 ± 1 | 487.1 ± 49 mPa·s
276.1 K, Glass, x1 = 0.1197 | – | – | 2361 ± 430 mPa·s
276.1 K, Glass, x1 = 0.3555 | 0.169 ± 0.004 S/m | – | –
276.1 K, Liquid, x1 = 0.0803 | 1.02 ± 0.021 S/m | – | –
276.1 K, Liquid, x1 = 0.1197 | – | 1080.3 ± 1 | –
276.1 K, Liquid, x1 = 0.4688 | 0.086 ± 0.003 S/m | – | –
277.1 K, Glass, x1 = 0.1197 | – | – | 1248 ± 170 mPa·s
277.1 K, Glass, x1 = 0.3555 | 0.181 ± 0.004 S/m | – | –
277.1 K, Liquid, x1 = 0.1197 | 0.807 S/m and 0.806 S/m | 1079.7 ± 1 | –
277.6 K, Glass, x1 = 0.3555 | – | – | 5137 ± 1300 mPa·s
277.6 K, Liquid, x1 = 0.3555 | – | 1100 ± 1 | –
277.9 K, Glass, x1 = 0.3555 | – | – | 2995 ± 600 mPa·s and 2875 ± 560 mPa·s
277.9 K, Liquid, x1 = 0.3555 | – | 1099.9 ± 1 | –
278.1 K, Glass, x1 = 0.1402 | 0.731 S/m and 0.732 S/m | – | –
278.1 K, Glass, x1 = 0.1605 | 0.677 ± 0.015 S/m | – | –
278.1 K, Glass, x1 = 0.2119 | 0.46 ± 0.01 S/m | – | –
278.1 K, Glass, x1 = 0.3076 | 0.259 S/m and 0.258 S/m | – | –
